Source: patent publication US20080175935A1, “Method to Treat Skin Conditions with Narcissus Tazetta Bulb Extract” (NuSkin International, Inc., priority 2004, published 2008)
Entries after “also recorded” stand apart in the source; their conditions may differ. Blank lines part the entries; values can stand above or below the compound they belong to.

Tests used:
arNOX [1] = assay: arNOX assay: ferricytochrome c reduction (superoxide production) in sera; assay type: biochemical, human; settings: for serum activity (cytochrome c reduction) in response to added reagent: sera of aged individuals; for oscillating activity in sera of aged individuals: FIG. 2G (SOD), FIG. 2H (coenzyme Q); for Inhibition by superoxide dismutase: sera from aged individuals; for Superoxide production (reduction of ferricytochrome c), with superoxide dismutase: sera of aged (80-98 y) individuals, n = 10; for amount at which inhibition of age-related cytochrome c reduction reaches a plateau: sera; for further inhibition of ferric cytochrome c reduction when added after maximal inhibition by the other agent: serum, SOD 30 units and coenzyme Q 450 μg added sequentially, 300 sec; for inhibition of ferric cytochrome c reduction activity: untreated serum samples
Description: (§1) Reduction of ferric cytochrome c by superoxide was employed as a standard measure of superoxide formation (Mayo, L. A. and Cumutte, J. (1990) Meth. Enzyme. 186, 567-575. 7. Butler, J, Koppenol, W. H. and Margollash, E. (1982) J. Biol. Chem. 257, 10747).
Assays of ferric cytochrome c reduction in sera compared 53 samples from young (20 to 40 y) and 65 samples from aged (80 to 100) individuals. […]
(§2) Measurement of arNOX activity based on ferricytochrome c reduction as a measure of superoxide production were taken. The rate of reduction of ferricytochrome c was determined from the increase in absorbance at 550 nm with 540 nm as reference. This is a widely accepted method when coupled to superoxide dismutase inhibition for the measurement of superoxide generation. The assay consists of 150 μl (2 mg/ml) of oxidized ferricytochrome c solution and 150 μl serum or 40 μl buffy coats in PBSG buffer (8.06 g NaCl, 0.2 g KCl, 0.18 g Na2HPO4, 0.26 g KH2PO4, 0.13 g CaCl2, 0.1 g MgCl2, 1.35 g glucose dissolved in 1000 ml deionized water, adjusted to pH 7.4, filtered and stored at 4° C.). Rates were determined using a SLM Aminco DW-2000 spectrophotometer (Milton Roy, Rochester, N.Y., USA) in the dual wave length mode of operation with continuous measurements over 1 min every 1.5 min. After 45 min, test compound was added and the reaction was continued for 45 min. A millimolar extinction coefficient of 19.1 cm^−1 was used for reduced ferricytochrome c. (D. M. Morré, F. Guo and D. J. Morré, 2003, Mol. Cell. Biochem. 254: […]).

[2] = tested on: NADH cytochrome c reductase; assay: NADH-cytochrome c reductase activity in serum; assay type: biochemical, human; settings: serum of either young or aged individuals
Description: (§3) However, the NADH-stimulated activity was about 4 nmoles/min/ml of sera for sera of both young and aged individuals. The aging-specific increment of ca. 2 nmoles/min/mg protein was observed both in the presence or absence of NADH.

arNOX [3] = assay: arNOX assay: ferricytochrome c reduction (superoxide production) by buffy coats; assay type: cell-based, human; settings: for oscillating activity of buffy coats and sera of aged individuals: FIG. 2, SOD 60 units or coenzyme Q 450 μg added after 45 min, 70-100 y; for Rate of reduction of ferricytochrome c, +100 μM Q10 / arNOX inhibition, activity at a dilution of 1:500: buffy coats; for Rate of reduction of ferricytochrome c, +100 μM Q10: mean ± SD, negative rates statistically zero; for arNOX inhibition, activity at a dilution of 1:50: dilution 1:50 (solids 2 mM), buffy coats from a person; for arNOX inhibition, activity at a dilution of 1:500: dilution 1:500
Protocol: as §1, with “10747). If superoxide dismutase was added to remove the superoxide as it was generated, the reduction of ferric cytochrome c was prevented to confirm that ferric cytochrome c reduction in the assay was due to superoxide.” for “10747).”
Buffy coats were pooled from aged individuals (70-100 y) and the reduction of ferric cytochrome c was observed (FIG. 2) with an oscillating activity. […] This oscillatory reduction of cytochrome c was absent from buffy coat fractions from younger (20-40 y) individuals (FIGS. 2A and 2B). […] The rate of coenzyme Q inhibited ferric cytochrome c reduction was 7-fold greater in buffy coat fractions of 90-94 y individuals as compared to 80-89 y individuals (Table 1). Buffy coats of less than 65 y individuals lacked the activity.
The compounds listed above in Table 4 were tested initially in the standard arNOX assay at a dilution of 1:50. Solids were prepared in water at an initial concentration of approximately 100 mM and then also tested at a dilution of 1:50, i.e., 2 mM. All compounds were evaluated using human buffy coats prepared from a person. Several compounds were evaluated with sera from aged patients as follow: IBR-DORMIN® Narcissus tazetta bulb extract (person), IBR-TOM® aqueous serum of tomato, available from Israeli Biotechnology Research Ltd. Corporation, Tel Aviv, Israel, (person), L-carnosine (person, person), L-ERGO® synthetically derived 1-ergothioneine, available from OXIS Health Products, Inc., Portland, Oreg. (person). Serum and buffy coats gave consistent results. Compounds active at 1:50 dilutions were reassayed with buffy coats at a dilution of 1:500 and compounds active at 1:500 were reassayed with buffy coats at a dilution of 1:5000.
Details of the assay protocol are as follow. Buffy coats, a mixture of lymphocytes and platelets, were obtained from a commercial supplier. The blood samples were maintained at 4° C. prior to collection and assay. Ca. 10^7 cells were added to each assay. Cell numbers were determined using a hemocytometer.
as §2

[4] = tested on: NADH cytochrome c reductase; assay: NADH cytochrome c reductase of pig liver microsomes; assay type: biochemical
Description: as §3

Compound: OO [hydrogen peroxide]
serum activity after oxidation of protein SH (arNOX [1]; dilute (0.01%) hydrogen peroxide followed by catalase): inactive

Compound: [Cu] [copper]
serum activity (cytochrome c reduction) in response to added reagent (arNOX [1]): did not enhance the activity

activity of NADH cytochrome c reductase in serum [2]: Neither SOD nor coenzyme Q inhibited | Inhibition by superoxide dismutase (arNOX [1]; before proteinase K digestion): 40% | Inhibition by superoxide dismutase (arNOX [1]; following proteinase K digestion): 60% | Superoxide production (reduction of ferricytochrome c), with superoxide dismutase (arNOX [1]; after proteinase K): 0.22 ± 0.1 Nmoles/min/mi/sera | Superoxide production (reduction of ferricytochrome c), with superoxide dismutase (arNOX [1]; no proteinase K): 0.42 ± 0.1 Nmoles/min/mi/sera
Compound: superoxide dismutase
oscillating activity of buffy coats and sera of aged individuals (arNOX [3]): reduced to basal levels | oscillating reduction of ferric cytochrome c (arNOX [3]; buffy coats pooled from aged individuals (70-100 y), SOD added (FIG. 2C)): inhibited completely | oscillating activity in sera of aged individuals (arNOX [1]; listed as SOD): eliminated; also recorded: completely inhibited | amount at which inhibition of age-related cytochrome c reduction reaches a plateau (arNOX [1]; FIG. 3): 45 units | further inhibition of ferric cytochrome c reduction when added after maximal inhibition by the other agent (arNOX [1]): no further inhibition | inhibition of ferric cytochrome c reduction activity (arNOX [1]; 30 units/ml): 40±10%

Compound: Cc1cc(-c2ccccc2)c2ccc3c(-c4ccccc4)cc(C)nc3c2n1 [bathocuproene]
serum activity (cytochrome c reduction) in response to added reagent (arNOX [1]): unaffected

activity of NADH cytochrome c reductase in serum [2]: Neither SOD nor coenzyme Q inhibited | activity of authentic NADH cytochrome c reductase of pig liver microsomes [4]: did not significantly inhibit | EC50 (arNOX [3]; buffy coats pooled from aged individuals (70-100 y), read-out: EC50 for inhibition of oscillating reduction of ferric cytochrome c): 20 µM
Compound: COC1=C(OC)C(=O)C(C/C=C(\C)CC/C=C(\C)CC/C=C(\C)CC/C=C(\C)CC/C=C(\C)CC/C=C(\C)CC/C=C(\C)CC/C=C(\C)CC/C=C(\C)CCC=C(C)C)=C(C)C1=O [coenzyme Q, ubiquinone-10]
oscillating activity of buffy coats and sera of aged individuals (arNOX [3]): reduced to basal levels | oscillating reduction of ferric cytochrome c (arNOX [3]; buffy coats pooled from aged individuals (70-100 y), 100 μM coenzyme Q (FIG. 2D)): inhibited completely | Rate of reduction of ferricytochrome c, +100 μM Q10 (arNOX [3]; group 80-89 years): −0.03 ± 0.02 nmoles min^−1 10^7 cells^−1 | Rate of reduction of ferricytochrome c, +100 μM Q10 (arNOX [3]; group 90-94 years): −0.07 ± 0.07 nmoles min^−1 10^7 cells^−1 | oscillating activity in sera of aged individuals (arNOX [1]): eliminated; also recorded: largely blocked | amount at which inhibition of age-related cytochrome c reduction reaches a plateau (arNOX [1]; FIG. 4): about 450 μg | further inhibition of ferric cytochrome c reduction when added after maximal inhibition by the other agent (arNOX [1]): no further inhibition | inhibition of ferric cytochrome c reduction activity (arNOX [1]; 300 μg/ml): 40%

Compound: Cc1cc(-c2ccc(S(=O)(=O)O)cc2)c2ccc3c(-c4ccc(S(=O)(=O)O)cc4)cc(C)nc3c2n1 [bathocuproenedisulforiate]
serum activity (cytochrome c reduction) in response to added reagent (arNOX [1]): unaffected

Compound: O=C(O)c1cc[c]([Hg][Cl])cc1 [p-chloromercuribenzoate]
serum activity (cytochrome c reduction) in response to added reagent (arNOX [1]): inhibited

Compound: COC(=O)c1ccc(O)cc1 [methylparaben, Methylparaben]
effect on the two distinct arNOX activities of the buffy coats (arNOX [3]; buffy coats containing two distinct arNOX activities): inhibited one and had no effect on the other | arNOX inhibition, activity at a dilution of 1:50 (arNOX [3]): active | arNOX inhibition, activity at a dilution of 1:500 (arNOX [3]): inactive

Compound: Catalase
serum activity (cytochrome c reduction) in response to added reagent (arNOX [1]): without effect

Compound: NCCC(=O)N[C@@H](Cc1cnc[nH]1)C(=O)O [L-carnosine, L-Carnosine]
effect on the arNOX activities of a serum sample (arNOX [1]; one experiment, serum sample containing 3 arNOX activities): inhibited one arNOX, stimulated a second arNOX and was without effect on a third

Compound: (−)-epigallocatechin gallate
response of arNOX to the drug (arNOX [1]): does not respond

Compound: C[N+](C)(C)[C@@H](Cc1c[nH]c(=S)[nH]1)C(=O)[O-] [L-Ergothioneine]
arNOX inhibition, activity at a dilution of 1:50 (arNOX [3]): mixed results | arNOX inhibition, activity at a dilution of 1:500 (arNOX [3]): inactive

Compound: COc1cc(CNC(=O)CCCC/C=C/C(C)C)ccc1O [capsaicin]
response of arNOX to the drug (arNOX [1]): does not respond

Compound: CCCOC(=O)c1ccc(O)cc1 [propylparaben, Propylparaben]
arNOX inhibition, activity at a dilution of 1:50 (arNOX [3]): active | arNOX inhibition, activity at a dilution of 1:500 (arNOX [3]): inactive

Compound: N[C@@H](CCC(=O)N[C@@H](CS)C(=O)NCC(=O)O)C(=O)O [GSH]
serum activity (cytochrome c reduction) in response to added reagent (arNOX [1]): neither stimulates nor inhibits
